Data set [1] deals with CCRF-CEM. The data set can be described thus: Induction of apoptosis in human CEM cells assessed as internucleosomal breakdown of DNA chromatin at 100 uM. The data set is classed as functional, cell-based.
For data set [2], the system named is L1210. The data set can be described thus: Decrease in cytoplasmic glutathione level in mouse L1210 cells at 100 uM. Type of data set: functional. Also noted: scale not given: the % may be the effect or the level left.
Data set [3] concerns L1210. The data set can be described thus: Decrease in mitochondrial glutathione level in mouse L1210 cells. Type of data set: functional, cell-based.
Data set [4] relates to CCRF-CEM. The experiment in a line: Cytotoxicity against human CEM cells after 24 hrs by MTT assay. The data set is classed as functional, cell-based. In general terms: Tetrazolium assays rely on reduction of a dye to a coloured formazan, in cell work by metabolically active cells.
Data set [5] has as its system L1210. The data set can be described thus: Cytotoxicity against mouse L1210 cells after 72 hrs by MTT assay. The data set is classed as functional, cell-based. The conditions noted are these: L1210, 72 h.
The nature of data set [6]: Genotoxicity against african green monkey VERO cells. The data set is classed as toxicity, cell-based. Conditions: African green monkey (Chlorocebus sabaeus).
The test system of data set [7] is L1210. The experiment in a line: Induction of apoptosis in mouse L1210 cells assessed as internucleosomal breakdown of DNA chromatin at 100 uM. Type of data set: functional, cell-based.
Data set [8] deals with CCRF-CEM. The experiment in a line: Induction of apoptosis in human CEM cells assessed as internucleosomal breakdown of DNA chromatin at 30 uM. Type of data set: functional, cell-based.
A further data set relates to Vero. The data set can be described thus: Cytotoxicity against african green monkey VERO cells. Type of data set: cell-based. The conditions noted are these: Chlorocebus sabaeus.
Data set [9] relates to L1210. The data set can be described thus: Cytotoxicity against mouse L1210 cells after 48 hrs by MTT assay. The data set is classed as functional, cell-based. The conditions noted are these: L1210, 48 h.
Data set [10] has as its system L1210. The data set can be described thus: Induction of apoptosis in mouse L1210 cells assessed as internucleosomal breakdown of DNA chromatin at 30 uM. Type of data set: functional, cell-based.
Data set [11] relates to L1210. The experiment in a line: Decrease in cytoplasmic glutathione level in mouse L1210 cells. Type of data set: functional, cell-based.
For data set [12], the system named is CCRF-CEM. The data set can be described thus: Cytotoxicity against human CEM cells after 72 hrs by MTT assay. The data set is classed as functional, cell-based.

pIC50: −log10 of the molar value. Calls of active or inactive are those of the source. No cut-off for these calls is given here.

As for `O=C(O)c1cc(O)c(O)c(O)c1` [GALLIC ACID], the result with CCRF-CEM [1], in the data set with L1210 [3], in the data set with L1210 [7], in the data set with CCRF-CEM [8], in the data set with L1210 [10] and in the data set with L1210 [11] was Active. For the same compound, the Activity in the data set on L1210 [2] stood at 75%. Also, the pIC50 is below 4.30 in the data set with CCRF-CEM [4]; 4.30 in the data set with L1210 [5]; below 3.52 in data set [6]; below 6.00 in the data set with Vero; below 4.30 in the data set with L1210 [9]; below 4.30 in the data set on CCRF-CEM [12].

A word on the pIC50: it is the IC50 on a negative log10 scale, so that one unit is a factor of ten.

For the origin of these results see ChEMBL document CHEMBL1157159, “Ester derivatives of gallic acid with potential toxicity toward L1210 leukemia cells” (Bioorg Med Chem, 2008).
